Test results: patent publication US11167034B2, “Polymeric paste compositions for drug delivery” (The University of British Columbia, priority 2017, dated 2021)
Values belong to the compound of their own block, whether it stands above or below them.

Legend:
[1] = In vitro drug release assay from polymeric paste (RP-HPLC-UV); assay type: physicochemical; conditions: for drug released by day 50: PEG:PLGA 63:37 and PEG:PLGA:Diblock 50:37:13 pastes, 1% docetaxel, 4% enzalutamide, FIG. 12A, 12B; for drug released by day 7: 8% w/w lidocaine
Experimental: The drug-loaded paste can be aliquoted for in vitro release studies. Paste (50-100 mg) is deposited at the bottom of a test tube and release medium is added (5-10 mL, sink conditions). Release medium is phosphate buffered saline (PBS, 10 mM, pH 7.4)) or PBS containing 1% Albumin. The test tubes are kept in a 37° C. incubator until the end of the study. Release samples are taken at appropriate time points by replacing the complete release medium (supernatant) and analyzing it for total drug using Reversed phase high-performance liquid chromatography with ultraviolet (UV) detection (RP-HPLC-UV).

[2] = Kidney pelvis injection of gemcitabine paste; assay type: in vivo, pigs; conditions: 5% gemcitabine in sodium hyaluronate containing paste, pig kidney pelvis
Experimental: After placement of a ureteral catheter, three pigs received an injection of 1-2 mL of polymeric paste into the kidney pelvis. After removal of the ureteral catheter, a urinary catheter was placed and urine collected for 3 h intervals over 24 h. Blood was collected from an ear vein over 24 h and gemcitabine concentrations were determined using ultra high performance liquid chromatography tandem mass spectrometry (UHPLC-MS/MS).
The drug gemcitabine was incorporated at 5% (m/m) in the sodium hyaluronate containing paste. This paste was injected through the 5 F catheter into the kidney pelvis of a pig.

[3] = single local injection, regional delivery of lidocaine; cited from earlier work
[4] = Local delivery of lidocaine paste subcutaneously in rats, serum lidocaine; assay type: in vivo; conditions: for maximum serum concentration: subcutaneous, rats
Experimental: (§1) Five groups of rats (male, Sprague Dawley™) with six animals in each group received one injection of paste formulation (0.1 mL) subcutaneously in their flank. The paste formulation was based on a 50:50 mixture of PEG 300™ and PLGA. Lidocaine was incorporated into the paste at 80, 100, 120, 140, and 160 mg per g of paste. The corresponding doses for each group were 23, 29, 36, 40 and 45 mg of Lidocaine per kg.
Blood was collected from the saphenous vein over four weeks at 0, 0.25, 1, 4, 24, 48, 168 336, 504 and 672 hours after injection. Lidocaine concentrations in rat serum were determined using ultra high performance liquid chromatography tandem mass spectrometry (UHPLC-MS/MS). A non-compartmental analysis was then applied to each data set using Phoenix 64™ (Build 6.3.0.395) WinNonlin 63™ to determine relevant pharmacokinetic parameters.
as §1, with “Sprague Dawley)” for “Sprague Dawley™)”, “of lidocaine” for “of Lidocaine”

[5] = PEG:PLGA:Diblock 50:37:13, lidocaine 8%, cephalexin 2%, ibuprofen 5%, FIG. 18
[6] = PEG:PLGA:Diblock 50:37:13, Tamsulosin 2% w/w, FIG. 17
[7] = PEG:PLGA:Diblock 50:37:13, lidocaine 10%, desoximetasone 1%, FIG. 14
[8] = PEG:PLGA 50:50 paste, docetaxel 4%, bicalutamide 4%, VPC-27 10%, FIG. 3A
[9] = PEG:PLGA:Diblock 50:37:13, docetaxel 0.25%, bicalutamide 4%, VPC-27 4%, FIG. 5
[10] = high diblock concentration (PEG:PLGA:Diblock 50:25:25), docetaxel 0.5%, FIG. 6D
[11] = low diblock concentration (PEG:PLGA:Diblock 50:43:7), docetaxel 0.5%, FIG. 6A

Structure (SMILES): C[C@@H]1C[C@H]2[C@@H]3CCC4=CC(=O)C=C[C@]4(C)[C@@]3(F)[C@@H](O)C[C@]2(C)[C@H]1C(=O)CO [desoximetasone]
drug released by day 35 [1, 7]: 100% | drug released, burst within the first day [1, 7]: 50%

Structure (SMILES): CC(=O)O[C@@]12CO[C@@H]1C[C@H](O)[C@@]1(C)C(=O)[C@H](O)C3=C(C)[C@@H](OC(=O)[C@H](O)[C@@H](NC(=O)OC(C)(C)C)c4ccccc4)C[C@@](O)([C@@H](OC(=O)c4ccccc4)[C@H]21)C3(C)C [docetaxel]
drug released, fast burst over 5 days [1, 8]: 10% | further encapsulated drug released over the next 40 days [1, 8]: 20% | drug release on day 18 ([1]; PEG:PLGA 55:45 paste without diblock, docetaxel 1%, bicalutamide 4%, VPC-27 4%, FIG. 8): around 10% | drug released by day 50 [1]: approximately 50% | drug released after one day [1, 9]: 24% | drug released on day 35 [1, 9]: 32% | drug release at day 8 ([1]; PEG:PLGA:Diblock 50:37:13, docetaxel 1%, rapamycin 1%, VPC-27 4%, FIG. 9): ~45% | drug released on day 21 [1, 10]: 78% | drug released, burst on day 1 [1, 10]: 67% | drug released on day 21 [1, 11]: 34% | drug released, burst on day 1 [1, 11]: 20%

Structure (SMILES): Nc1ccn([C@@H]2O[C@H](CO)[C@@H](O)C2(F)F)c(=O)n1 [gemcitabine]
blockage of the ureter [2]: did not result in any blockage of the ureter | Gemcitabine levels in urine ([2]; FIG. 25A): initially high and levelled off after 5-7 hours | Serum gemcitabine levels ([2]; FIG. 25B): very low, but detectable in all pigs

Structure (SMILES): CCN(CC)CC(=O)Nc1c(C)cccc1C [lidocaine]
duration [3]: 60 to 120 min | onset [3]: 3 min | maximum serum concentration ([4]; 80 mg/g paste (PEG 300:PLGA 50:50), 23 mg/kg): 557.26 ± 81.15 ng/mL | maximum serum concentration ([4]; 100 mg/g paste (PEG 300:PLGA 50:50), 29 mg/kg): 578.90 ± 162.59 ng/mL | maximum serum concentration ([4]; 120 mg/g paste (PEG 300:PLGA 50:50), 36 mg/kg): 638.03 ± 190.61 ng/mL | maximum serum concentration ([4]; 140 mg/g paste (PEG 300:PLGA 50:50), 40 mg/kg): 855.98 ± 196.18 ng/mL | maximum serum concentration ([4]; 160 mg/g paste (PEG 300:PLGA 50:50), 45 mg/kg): 1148.88 ± 838.97 ng/mL | maximum concentrations detected in serum in each group ([4]; all studied strengths, below upper limit of therapeutic range): < 5000 ng/mL | drug released by day 7 ([1]; PEG:PLGA:Diblock 50:37:13, crescent shape): 88% | drug released by day 7 ([1]; PEG:PLGA:Diblock 50:37:13, cylinder shape): 92% | drug released by day 7 ([1]; PEG:PLGA:Diblock 50:37:13, hemisphere shape): approximately 65% | drug released by day 35 [1, 5]: approximately 70% | drug released, burst release by day one [1, 5]: 54% | drug released by day 35 [1, 7]: 80% | drug released, burst within the first day [1, 7]: 50% | drug released by day 18 ([1]; all PEG:PLGA pastes without diblock (50:50, 55:45, 60:40), 8% lidocaine, FIG. 15): 100%

Second part, the compound after the results:

drug release at 1 day ([1]; PEG:PLGA:Diblock 50:37:13, cephalexin between 2 and 19% loading, PBS without albumin, FIG. 10): almost all drug was released | drug released, maximum on day 3 [1, 5]: 80%
Structure (SMILES): CC1=C(C(=O)O)N2C(=O)[C@@H](NC(=O)[C@H](N)c3ccccc3)[C@H]2SC1 [Cephalexin]

drug released by day 35 [1, 5]: approximately 70% | drug released, burst release by day one [1, 5]: 54%
Structure (SMILES): CC(C)Cc1ccc(C(C)C(=O)O)cc1 (stereo not shown) [Ibuprofen]

drug released by day 6 [1, 6]: 70% | drug released on day 21 [1, 6]: 80% | drug released, burst phase on day 1 [1, 6]: 47%
Structure (SMILES): CCOc1ccccc1OCCN[C@H](C)Cc1ccc(OC)c(S(N)(=O)=O)c1 [Tamsulosin]

drug released by day 50 [1]: approximately 40%
Structure (SMILES): CNC(=O)c1ccc(N2C(=S)N(c3ccc(C#N)c(C(F)(F)F)c3)C(=O)C2(C)C)cc1F [enzalutamide]
